Reference: ChEMBL document CHEMBL3813628, “Molecular similarity guided optimization of novel Nrf2 activators with 1,2,4-oxadiazole core” (Bioorg Med Chem, 2016)
The source made the active and inactive calls. The rule behind the calls is not given here.

Assays:
[1] = molecular target: T1, Nuclear factor erythroid 2-related factor 2 (Homo sapiens) (UniProt Q16236); assay: Activation of Nrf2 in human HepG2 cells at 2 uM incubated for 12 hrs by ARE-driven luciferase reporter gene assay relative to control; format: cell-based
T1 sequence (whole entry): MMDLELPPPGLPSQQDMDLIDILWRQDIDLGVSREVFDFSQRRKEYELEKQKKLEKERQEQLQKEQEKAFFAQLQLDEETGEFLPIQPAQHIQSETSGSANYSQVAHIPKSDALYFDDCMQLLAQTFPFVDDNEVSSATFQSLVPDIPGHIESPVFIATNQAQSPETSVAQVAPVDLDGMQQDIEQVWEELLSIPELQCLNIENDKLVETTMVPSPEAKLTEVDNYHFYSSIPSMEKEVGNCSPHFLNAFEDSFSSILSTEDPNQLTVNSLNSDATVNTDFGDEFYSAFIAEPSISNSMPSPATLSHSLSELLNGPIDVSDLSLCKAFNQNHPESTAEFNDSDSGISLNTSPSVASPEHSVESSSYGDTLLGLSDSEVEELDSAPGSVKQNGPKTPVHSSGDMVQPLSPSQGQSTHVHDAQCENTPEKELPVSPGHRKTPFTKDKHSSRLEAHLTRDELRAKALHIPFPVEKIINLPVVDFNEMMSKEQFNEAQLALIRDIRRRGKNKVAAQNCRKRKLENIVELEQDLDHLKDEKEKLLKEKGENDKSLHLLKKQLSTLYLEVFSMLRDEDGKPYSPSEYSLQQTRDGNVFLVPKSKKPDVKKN

[2] = molecular target: T1, Nuclear factor erythroid 2-related factor 2 (Homo sapiens); assay: Activation of Nrf2 in human HepG2 cells at 160 uM incubated for 12 hrs by ARE-driven luciferase reporter gene assay relative to control; format: cell-based
[3] = molecular target: T1, Nuclear factor erythroid 2-related factor 2 (Homo sapiens); assay: Activation of Nrf2 in human HepG2 cells at 0.02 uM incubated for 12 hrs by ARE-driven luciferase reporter gene assay relative to control; format: cell-based
[4] = molecular target: T1, Nuclear factor erythroid 2-related factor 2 (Homo sapiens); assay: Activation of Nrf2 in human HepG2 cells at 20 uM incubated for 12 hrs by ARE-driven luciferase reporter gene assay relative to control; format: cell-based
[5] = molecular target: T1, Nuclear factor erythroid 2-related factor 2 (Homo sapiens); assay: Activation of Nrf2 in human HepG2 cells at 0.2 uM incubated for 12 hrs by ARE-driven luciferase reporter gene assay relative to control; format: cell-based
[6] = molecular target: T1, Nuclear factor erythroid 2-related factor 2 (Homo sapiens); assay: Activation of Nrf2 in human HepG2 cells at 5 uM incubated for 12 hrs by ARE-driven luciferase reporter gene assay relative to control; format: cell-based
[7] = molecular target: T1, Nuclear factor erythroid 2-related factor 2 (Homo sapiens); assay: Activation of Nrf2 in human HepG2 cells at 40 uM incubated for 12 hrs by ARE-driven luciferase reporter gene assay relative to control; format: cell-based
[8] = molecular target: T1, Nuclear factor erythroid 2-related factor 2 (Homo sapiens); assay: Activation of Nrf2 in human HepG2 cells at 80 uM incubated for 12 hrs by ARE-driven luciferase reporter gene assay relative to control; format: cell-based
[9] = molecular target: T1, Nuclear factor erythroid 2-related factor 2 (Homo sapiens); assay: Activation of Nrf2 in human HCT116 cells assessed as upregulation of gamma-GCS after 8 hrs by western blot analysis; format: cell-based; conditions: HCT-116
[10] = molecular target: T1, Nuclear factor erythroid 2-related factor 2 (Homo sapiens); assay: Induction of Nrf2 translocation into nucleus in human L02 cells after 12 hrs by DAPI staining-based laser scanning confocal microscopic analysis; format: cell-based
[11] = Cytotoxicity against human L02 cells assessed as cell viability at 160 uM after 24 hrs by MTT assay relative to control; format: cell-based; conditions: read-out: Activity
[12] = Cytotoxicity against human L02 cells assessed as cell viability at low to medium concentration after 24 hrs by MTT assay relative to control; format: cell-based; conditions: l02, 24 h
[13] = (§1) Cytoprotective activity against H2O2-induced cytotoxicity in human L02 cells assessed as cell viability pretreated at 20 uM for 24 hrs followed by H2O2 challenge for 12 hrs by MTT assay (reference value: 50%); format: functional; conditions: read-out: Activity
[14] = Cytotoxicity against human NCM460 cells assessed as cell viability at 160 uM after 24 hrs by MTT assay relative to control; format: cell-based; conditions: read-out: Activity
[15] = Cytotoxicity against rat PC12 cells assessed as cell viability at low to medium concentration after 24 hrs by MTT assay relative to control; format: cell-based; conditions: pc-12, 24 h
[16] = molecular target: T1, Nuclear factor erythroid 2-related factor 2 (Homo sapiens); assay: Activation of Nrf2 in human HCT116 cells assessed as upregulation of NQO1 after 8 hrs by western blot analysis; format: cell-based; conditions: HCT-116
[17] = Cytotoxicity against human NCM460 cells assessed as cell viability at low to medium concentration after 24 hrs by MTT assay relative to control; format: cell-based; conditions: ncm460, 24 h
[18] = Cytotoxicity against human NCM460 cells assessed as cell viability at 20 uM after 24 hrs by MTT assay relative to control; format: cell-based; conditions: ncm460, 24 h
[19] = molecular target: T1, Nuclear factor erythroid 2-related factor 2 (Homo sapiens); assay: Induction of Nrf2 translocation from cytoplasm to nucleus in human HCT116 cells at 20 uM by western blot analysis; format: cell-based; conditions: HCT-116, TDE = time-dependent effect
[20] = molecular target: T1, Nuclear factor erythroid 2-related factor 2 (Homo sapiens); assay: Activation of Nrf2 in human HCT116 cells assessed as upregulation of HO-1 after 8 hrs by western blot analysis; format: cell-based; conditions: HCT-116
[21] = Cytotoxicity against human L02 cells assessed as cell viability at 20 uM after 24 hrs by MTT assay relative to control; format: cell-based; conditions: l02, 24 h
[22] = (§2) Cytoprotective activity against H2O2-induced cytotoxicity in rat PC12 cells assessed as cell viability pretreated at 20 uM for 24 hrs followed by H2O2 challenge for 12 hrs by MTT assay (reference value: 50%); format: functional; conditions: PC-12, read-out: Activity
[23] = molecular target: T1, Nuclear factor erythroid 2-related factor 2 (Homo sapiens); assay: Activation of Nrf2 expression in human HCT116 cells after 8 hrs by western blot analysis; format: cell-based; conditions: HCT-116
[24] = molecular target: T1, Nuclear factor erythroid 2-related factor 2 (Homo sapiens); assay: Induction of Nrf2 translocation into nucleus in human NCM460 cells after 12 hrs by DAPI staining-based laser scanning confocal microscopic analysis; format: cell-based
[25] = (§3) Cytoprotective activity against H2O2-induced cytotoxicity in human NCM460 cells assessed as cell viability pretreated at 20 uM for 24 hrs followed by H2O2 challenge for 12 hrs by MTT assay (reference value: 50%); format: functional; conditions: read-out: Activity
[26] = molecular target: T2, Nuclear factor erythroid 2-related factor 2 (Rattus norvegicus) (UniProt O54968); assay: Induction of Nrf2 translocation into nucleus in rat PC12 cells after 12 hrs by DAPI staining-based laser scanning confocal microscopic analysis; format: cell-based; conditions: PC-12
T2 sequence (whole entry): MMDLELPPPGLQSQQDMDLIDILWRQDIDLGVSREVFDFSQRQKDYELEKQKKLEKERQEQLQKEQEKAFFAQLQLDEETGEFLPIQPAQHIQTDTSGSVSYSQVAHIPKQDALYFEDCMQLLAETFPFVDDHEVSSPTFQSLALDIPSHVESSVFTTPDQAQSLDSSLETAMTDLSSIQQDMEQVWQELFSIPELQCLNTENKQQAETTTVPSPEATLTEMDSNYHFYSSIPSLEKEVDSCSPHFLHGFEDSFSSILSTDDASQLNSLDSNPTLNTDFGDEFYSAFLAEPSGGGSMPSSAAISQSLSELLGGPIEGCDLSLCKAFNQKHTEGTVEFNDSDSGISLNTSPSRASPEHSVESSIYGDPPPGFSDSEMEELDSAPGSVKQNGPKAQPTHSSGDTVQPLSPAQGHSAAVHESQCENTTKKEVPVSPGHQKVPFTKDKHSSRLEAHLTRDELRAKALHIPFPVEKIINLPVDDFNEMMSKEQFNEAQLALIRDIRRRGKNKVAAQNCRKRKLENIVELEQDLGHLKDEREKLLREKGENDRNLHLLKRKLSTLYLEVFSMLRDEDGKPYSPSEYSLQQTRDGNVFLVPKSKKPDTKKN

[27] = Cytotoxicity against human HCT116 cells assessed as cell viability after 24 hrs by MTT assay; format: cell-based; conditions: hct-116, 24 h
[28] = molecular target: T1, Nuclear factor erythroid 2-related factor 2 (Homo sapiens); assay: Activation of Nrf2 in human HepG2 cells incubated for 12 hrs by ARE-driven luciferase reporter gene assay relative to control; format: cell-based
[29] = Cytotoxicity against rat PC12 cells assessed as cell viability at 160 uM after 24 hrs by MTT assay relative to control; format: cell-based, PC-12; conditions: read-out: Activity
[30] = Cytotoxicity against rat PC12 cells assessed as cell viability at 20 uM after 24 hrs by MTT assay relative to control; format: cell-based; conditions: pc-12, 24 h
L02 = assay: as §1; format: functional
PC-12 = assay: as §2; format: functional
NCM460 = assay: as §3; format: functional

Compound | fold change (FC) [1] | fold change (FC) [2] | fold change (FC) [3] | fold change (FC) [4] | fold change (FC) [5] | fold change (FC) [6] | fold change (FC) [7] | fold change (FC) [8] | Activity [12] | Activity [15] | Activity [17] | other results
Cc1nc2cc(-c3noc(-c4ccc5[nH]cnc5c4)n3)ccc2o1 | 3.95 | 2.51 | 1.89 | 7.98 | 2.35 | 4.38 | 8.94 | 4.88 |  |  |  | 
Cc1nc2cc(-c3noc(-c4cnccn4)n3)ccc2o1 | 4.67 | 15.3 | 3.42 | 9.57 | 4.98 | 6.85 | 15.5 | 17.1 | Non-toxic | Non-toxic | Non-toxic | Activity [9]: Dose-dependent effect; Activity [10]: Dose-dependent effect; viability at 24 h, 160 µM [11]: 80%; viability at 20 µM [13]: 85%; viability at 24 h, 160 µM [14]: 80%; Activity [16]: Dose-dependent effect; Activity [18]: Non-toxic; Activity [19]: tde; Activity [20]: Dose-dependent effect; Activity [21]: Non-toxic; viability at 20 µM [22]: 80%; Activity [23]: Dose-dependent effect; Activity [24]: Dose-dependent effect; viability at 20 µM [25]: 90%; Activity [26]: Dose-dependent effect; Activity [27]: Non-toxic; Activity [28]: Dose-dependent effect; viability at 24 h, 160 µM [29]: 80%; Activity [30]: Non-toxic
c1ccc(-c2nc3cc(-c4noc(-c5ccc6[nH]cnc6c5)n4)ccc3o2)cc1 | 3.21 | 17.7 | 1.81 | 6.96 | 4.42 | 4.55 | 5.43 | 8.23 |  |  |  | 
CC(C)(C)c1cc(O)ccc1O [E319] | 1.24 | 8.46 | 1.18 |  | 1.25 |  | 2.14 | 5.2 | Non-toxic | Non-toxic | Non-toxic | Activity (L02): Active; Activity (PC-12): Active; Activity (NCM460): Active
CCCn1c(=O)[nH]c2cc(-c3noc(C4CCCC4)n3)ccc21 | 4.86 | 8.4 | 3.71 | 7.27 | 4.19 | 3.2 | 7.03 | 6.01 |  |  |  | 
